Reference: patent USRE38117E1, “Trioxane dimer compound having antiproliferative and antitumor activities” (Hauser, Inc., priority 1995, dated 2003)

Key:
Format in all cases: cell-based
CCRF-CEM = assay: NCI 60 cell line screen (SRB), Leukemia
K-562 = assay: NCI 60 cell line screen (SRB), Leukemia; details: K-562 (Leukemia)
MOLT-4 = assay: NCI 60 cell line screen (SRB), Leukemia
HOP-62 = assay: NCI 60 cell line screen (SRB), Non-Small Cell Lung Cancer; details: HOP-62 (Non-Small Cell Lung Cancer)
NCI-H460 = assay: as above
HCC-2998 = assay: NCI 60 cell line screen (SRB), Colon Cancer; details: HCC-2998 (Colon Cancer)
HCT-116 = assay: NCI 60 cell line screen (SRB), Colon Cancer; details: HCT-116 (Colon Cancer)
HCT-15 = assay: NCI 60 cell line screen (SRB), Colon Cancer; details: HCT-15 (Colon Cancer)
SF-539 = assay: NCI 60 cell line screen (SRB), CNS Cancer; details: SF-539 (CNS Cancer)
U251 = assay: NCI 60 cell line screen (SRB), CNS Cancer
MALME-3M = assay: NCI 60 cell line screen (SRB), Melanoma; details: MALME-3M (Melanoma)
UACC-257 = assay: NCI 60 cell line screen (SRB), Melanoma; details: UACC-257 (Melanoma)
UACC-62 = assay: NCI 60 cell line screen (SRB), Melanoma; details: UACC-62 (Melanoma)
OVCAR-3 = assay: NCI 60 cell line screen (SRB), Ovarian Cancer; details: OVCAR-3 (Ovarian Cancer)
OVCAR-4 = assay: NCI 60 cell line screen (SRB), Ovarian Cancer; details: OVCAR-4 (Ovarian Cancer)
786-0 = assay: NCI 60 cell line screen (SRB), Renal Cancer; details: 786-0 (Renal Cancer)
A498 = assay: NCI 60 cell line screen (SRB), Renal Cancer
ACHN = assay: NCI 60 cell line screen (SRB), Renal Cancer
CAKI-1 = assay: NCI 60 cell line screen (SRB), Renal Cancer; details: CAKI-1 (Renal Cancer)
RXF 393 = assay: NCI 60 cell line screen (SRB), Renal Cancer; details: RXF 393 (Renal Cancer)
SN12C = assay: NCI 60 cell line screen (SRB), Renal Cancer
TK-10 = assay: NCI 60 cell line screen (SRB), Renal Cancer; details: TK-10 (Renal Cancer)
MCF7/ADR-RES = assay: NCI 60 cell line screen (SRB), Breast Cancer
MDA-MB231/ATCC = assay: NCI 60 cell line screen (SRB), Breast Cancer
MDA-N = assay: NCI 60 cell line screen (SRB), Breast Cancer

SMILES: CC(=O)O[C@H]1C(=O)[C@@]2(C)[C@H]([C@H](OC(=O)c3ccccc3)[C@]3(O)C[C@H](OC(=O)[C@H](O)[C@@H](NC(=O)c4ccccc4)c4ccccc4)C(C)=C1C3(C)C)[C@]1(OC(C)=O)CO[C@@H]1C[C@@H]2O [Paclitaxel, paclitaxel, reference compound]
- Log10GI50 (CCRF-CEM): −11.61 M
- Log10LC50 (CCRF-CEM): >−4.00 M
- Log10TGI (CCRF-CEM): >−4.00 M
- Log10GI50 (K-562): −10.83 M
- Log10LC50 (K-562): >−4.00 M
- Log10TGI (K-562): >−4.00 M
- Log10GI50 (MOLT-4; MOLT-4 (Leukemia)): −11.07 M
- Log10LC50 (MOLT-4; MOLT-4 (Leukemia)): >−4.00 M
- Log10TGI (MOLT-4; MOLT-4 (Leukemia)): >−4.00 M
- drug concentration necessary to achieve primary growth inhibition (percentage growth +50) (MOLT-4; MOLT-4, read from dose response curves FIGS. 10a-10e): less than 10^−8 molar
- Log10GI50 (HOP-62): −9.67 M
- Log10LC50 (HOP-62): −4.10 M
- Log10TGI (HOP-62): −4.80 M
- Log10GI50 (NCI-H460): −12.16 M
- Log10LC50 (NCI-H460): >−4.00 M
- Log10TGI (NCI-H460): −4.92 M
- Log10GI50 (HCC-2998): −12.34 M
- Log10LC50 (HCC-2998): −4.26 M
- Log10TGI (HCC-2998): −4.77 M
- Log10GI50 (HCT-116): <−13.00 M
- Log10LC50 (HCT-116): >−4.00 M
- Log10TGI (HCT-116): −4.82 M
- Log10GI50 (HCT-15): −6.37 M
- Log10LC50 (HCT-15): >−4.00 M
- Log10TGI (HCT-15): >−4.00 M
- Log10GI50 (SF-539): −11.09 M
- Log10LC50 (SF-539): >−4.00 M
- Log10GI50 (U251): −11.29 M
- Log10LC50 (U251): −4.15 M
- Log10TGI (U251): −4.32 M
- Log10LC50 (MALME-3M): −4.11 M
- Log10TGI (MALME-3M): −4.46 M
- Log10GI50 (UACC-257): −10.30 M
- Log10LC50 (UACC-257): −4.03 M
- Log10TGI (UACC-257): −4.52 M
- Log10GI50 (UACC-62): −10.46 M
- Log10LC50 (UACC-62): −4.19 M
- Log10TGI (UACC-62): −4.71 M
- Log10GI50 (OVCAR-3): −10.40 M
- Log10LC50 (OVCAR-3): >−4.00 M
- Log10TGI (OVCAR-3): −4.55 M
- Log10GI50 (OVCAR-4): −5.00 M
- Log10LC50 (OVCAR-4): >−4.00 M
- Log10TGI (OVCAR-4): −4.19 M
- Log10GI50 (786-0): −8.01 M
- Log10LC50 (786-0): >−4.00 M
- Log10TGI (786-0): >−4.00 M
- Log10GI50 (A498): −7.14 M
- Log10LC50 (A498): −4.13 M
- Log10LC50 (ACHN): −4.45 M
- Log10TGI (ACHN): −4.90 M
- Log10LC50 (CAKI-1): >−4.00 M
- Log10GI50 (RXF 393): −8.32 M
- Log10LC50 (RXF 393): >−4.00 M
- Log10TGI (RXF 393): >−4.00 M
- Log10GI50 (SN12C): −9.53 M
- Log10LC50 (SN12C): >−4.00 M
- Log10GI50 (TK-10): −7.89 M
- Log10GI50 (MCF7/ADR-RES): −8.48 M
- Log10LC50 (MCF7/ADR-RES): >−4.00 M
- Log10TGI (MCF7/ADR-RES): >−4.00 M
- Log10GI50 (MDA-MB231/ATCC): −8.54 M
- Log10TGI (MDA-MB231/ATCC): −4.84 M
- Log10GI50 (MDA-N): <−13.00 M
